ChEMBL document CHEMBL4507298 (2021)

Tests used:
[1] = biological target: Adenosine receptor A3 (Homo sapiens) (UniProt P0DMS8); experiment: A3 (h) CEREP ligand profiling; conditions: Compound concentration 10.0 uM
[2] = biological target: Mitogen-activated protein kinase kinase kinase 3 (Homo sapiens) (UniProt Q99759); conditions: Compound concentration 1000.0 nM
[3] = test system: Phosphatidylinositol 4,5-bisphosphate 3-kinase catalytic subunit alpha isoform (Homo sapiens), P42336 [I800L]; conditions: Compound concentration 1000.0 nM
[4] = biological target: Cyclin-dependent kinase-like 3 (Homo sapiens) (UniProt Q8IVW4); conditions: Compound concentration 1000.0 nM
[5] = biological target: Tyrosine-protein kinase receptor Tie-1 (Homo sapiens) (UniProt P35590); conditions: Compound concentration 1000.0 nM
[6] = biological target: Mitogen-activated protein kinase kinase kinase 19 (Homo sapiens) (UniProt Q56UN5); conditions: Compound concentration 1000.0 nM
[7] = biological target: Serine/threonine-protein kinase SIK3 (Homo sapiens) (UniProt Q9Y2K2); conditions: Compound concentration 1000.0 nM
[8] = biological target: Dual specificity mitogen-activated protein kinase kinase 4 (Homo sapiens) (UniProt P45985); conditions: Compound concentration 1000.0 nM
[9] = biological target: Cyclin-dependent kinase 18 (Homo sapiens) (UniProt Q07002); conditions: Compound concentration 1000.0 nM
[10] = biological target: Leukotriene B4 receptor 1 (Homo sapiens, UniProt Q15722); experiment: Binding assay (LTB4R )
[11] = biological target: Serine/threonine-protein kinase 32A (Homo sapiens) (UniProt Q8WU08); conditions: Compound concentration 1000.0 nM
[12] = biological target: Vascular endothelial growth factor receptor 3 (Homo sapiens) (UniProt P35916); conditions: Compound concentration 1000.0 nM
[13] = test system: Mast/stem cell growth factor receptor Kit (Homo sapiens), P10721 [D816H]; conditions: Compound concentration 1000.0 nM
[14] = biological target: Serine/threonine-protein kinase TAO3 (Homo sapiens) (UniProt Q9H2K8); conditions: Compound concentration 1000.0 nM
[15] = test system: Tyrosine-protein kinase ABL1 (Homo sapiens), P00519 [H396P]; conditions: Compound concentration 1000.0 nM
[16] = biological target: Serine/threonine-protein kinase PknB (Mycobacterium tuberculosis) (UniProt P9WI81); conditions: Compound concentration 1000.0 nM
[17] = biological target: Endothelin-1 receptor (Homo sapiens) (UniProt P25101); experiment: ETA (h) CEREP ligand profiling; conditions: Compound concentration 10.0 uM
[18] = biological target: Adenosine receptor A1 (Homo sapiens) (UniProt P30542); experiment: A1 (h) CEREP ligand profiling; conditions: Compound concentration 10.0 uM
[19] = biological target: Serine/threonine-protein kinase PAK 4 (Homo sapiens) (UniProt O96013); conditions: Compound concentration 1000.0 nM
[20] = test system: Receptor-type tyrosine-protein kinase FLT3 (Homo sapiens), P36888 [N841I]; conditions: Compound concentration 1000.0 nM
[21] = test system: Phosphatidylinositol 4,5-bisphosphate 3-kinase catalytic subunit alpha isoform (Homo sapiens), P42336 [E542K]; conditions: Compound concentration 1000.0 nM
[22] = biological target: Ephrin type-B receptor 4 (Homo sapiens) (UniProt P54760); conditions: Compound concentration 1000.0 nM
[23] = biological target: Cyclin-dependent kinase 2 homolog (Plasmodium falciparum (isolate 3D7)) (UniProt P61075); conditions: Compound concentration 1000.0 nM
[24] = biological target: Tyrosine-protein kinase Lyn (Homo sapiens) (UniProt P07948); conditions: Compound concentration 1000.0 nM
[25] = biological target: Melanocyte-stimulating hormone receptor (Homo sapiens) (UniProt Q01726); experiment: MC1 CEREP ligand profiling; conditions: Compound concentration 10.0 uM
[26] = biological target: MAP kinase-interacting serine/threonine-protein kinase 1 (Homo sapiens) (UniProt Q9BUB5); conditions: Compound concentration 1000.0 nM
[27] = biological target: Peroxisome proliferator-activated receptor gamma (Homo sapiens) (UniProt P37231); experiment: PPAR gamma (h) CEREP ligand profiling; conditions: Compound concentration 10.0 uM
[28] = biological target: Ribosomal protein S6 kinase alpha-3 (Homo sapiens) (UniProt P51812); conditions: Compound concentration 1000.0 nM
[29] = biological target: Ribosomal protein S6 kinase alpha-6 (Homo sapiens) (UniProt Q9UK32); conditions: Compound concentration 1000.0 nM
[30] = biological target: Serine/threonine-protein kinase Sgk2 (Homo sapiens) (UniProt Q9HBY8); conditions: Compound concentration 1000.0 nM
[31] = biological target: Activin receptor type-1-like (Homo sapiens) (UniProt P37023); conditions: Compound concentration 1000.0 nM
[32] = biological target: Ephrin type-B receptor 3 (Homo sapiens) (UniProt P54753); conditions: Compound concentration 1000.0 nM
[33] = biological target: D(3) dopamine receptor (Homo sapiens) (UniProt P35462); experiment: D3 (h) CEREP ligand profiling; conditions: Compound concentration 10.0 uM
[34] = biological target: LIM domain kinase 2 (Homo sapiens) (UniProt P53671); conditions: Compound concentration 1000.0 nM
[35] = biological target: cGMP-dependent 3',5'-cyclic phosphodiesterase (Homo sapiens) (UniProt O00408); experiment: PDE2 (h) CEREP ligand profiling; conditions: Compound concentration 10.0 uM
[36] = biological target: Peripheral plasma membrane protein CASK (Homo sapiens) (UniProt O14936); conditions: Compound concentration 1000.0 nM
[37] = biological target: 5'-AMP-activated protein kinase catalytic subunit alpha-2 (Homo sapiens) (UniProt P54646); conditions: Compound concentration 1000.0 nM
[38] = biological target: Serine/threonine-protein kinase ULK2 (Homo sapiens) (UniProt Q8IYT8); conditions: Compound concentration 1000.0 nM
[39] = test system: Tyrosine-protein kinase ABL1 (Homo sapiens), P00519 [Q252H]; conditions: Compound concentration 1000.0 nM
[40] = biological target: Eukaryotic translation initiation factor 2-alpha kinase 1 (Homo sapiens) (UniProt Q9BQI3); conditions: Compound concentration 1000.0 nM
[41] = biological target: Beta-2 adrenergic receptor (Homo sapiens) (UniProt P07550); experiment: beta 2 (h) CEREP ligand profiling; conditions: Compound concentration 10.0 uM
[42] = test system: Tyrosine-protein kinase ABL1 (Homo sapiens), P00519 [T315I]; conditions: Compound concentration 1000.0 nM
[43] = biological target: MAP kinase-interacting serine/threonine-protein kinase 2 (Homo sapiens) (UniProt Q9HBH9); conditions: Compound concentration 1000.0 nM
[44] = biological target: Beta-1 adrenergic receptor (Homo sapiens) (UniProt P08588); conditions: Compound concentration 10.0 uM
[45] = biological target: Sodium-dependent dopamine transporter (Homo sapiens) (UniProt Q01959); conditions: Compound concentration 10.0 uM
[46] = biological target: Histamine H4 receptor (Homo sapiens, UniProt Q9H3N8); experiment: GPCRScan assay: inhibition of H4; design: radioligand conc. used [nm] 1.0 – 5.0, parental cells HEK T

Sequence of Dual specificity mitogen-activated protein kinase kinase 4 (Homo sapiens) (P45985 whole entry): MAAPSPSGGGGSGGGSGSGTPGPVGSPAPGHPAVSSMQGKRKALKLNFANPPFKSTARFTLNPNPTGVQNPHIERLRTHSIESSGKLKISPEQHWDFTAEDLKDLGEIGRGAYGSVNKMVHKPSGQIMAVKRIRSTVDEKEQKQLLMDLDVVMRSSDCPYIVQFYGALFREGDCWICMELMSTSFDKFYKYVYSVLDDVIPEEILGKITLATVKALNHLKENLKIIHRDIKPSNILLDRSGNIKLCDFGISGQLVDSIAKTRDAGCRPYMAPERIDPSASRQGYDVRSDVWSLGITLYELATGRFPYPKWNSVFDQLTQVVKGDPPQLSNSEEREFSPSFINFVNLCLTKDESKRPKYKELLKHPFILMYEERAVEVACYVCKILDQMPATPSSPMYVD
Sequence of Phosphatidylinositol 4,5-bisphosphate 3-kinase catalytic subunit alpha isoform (Homo sapiens), P42336 [I800L] (P42336 whole entry I800L, canonical isoform): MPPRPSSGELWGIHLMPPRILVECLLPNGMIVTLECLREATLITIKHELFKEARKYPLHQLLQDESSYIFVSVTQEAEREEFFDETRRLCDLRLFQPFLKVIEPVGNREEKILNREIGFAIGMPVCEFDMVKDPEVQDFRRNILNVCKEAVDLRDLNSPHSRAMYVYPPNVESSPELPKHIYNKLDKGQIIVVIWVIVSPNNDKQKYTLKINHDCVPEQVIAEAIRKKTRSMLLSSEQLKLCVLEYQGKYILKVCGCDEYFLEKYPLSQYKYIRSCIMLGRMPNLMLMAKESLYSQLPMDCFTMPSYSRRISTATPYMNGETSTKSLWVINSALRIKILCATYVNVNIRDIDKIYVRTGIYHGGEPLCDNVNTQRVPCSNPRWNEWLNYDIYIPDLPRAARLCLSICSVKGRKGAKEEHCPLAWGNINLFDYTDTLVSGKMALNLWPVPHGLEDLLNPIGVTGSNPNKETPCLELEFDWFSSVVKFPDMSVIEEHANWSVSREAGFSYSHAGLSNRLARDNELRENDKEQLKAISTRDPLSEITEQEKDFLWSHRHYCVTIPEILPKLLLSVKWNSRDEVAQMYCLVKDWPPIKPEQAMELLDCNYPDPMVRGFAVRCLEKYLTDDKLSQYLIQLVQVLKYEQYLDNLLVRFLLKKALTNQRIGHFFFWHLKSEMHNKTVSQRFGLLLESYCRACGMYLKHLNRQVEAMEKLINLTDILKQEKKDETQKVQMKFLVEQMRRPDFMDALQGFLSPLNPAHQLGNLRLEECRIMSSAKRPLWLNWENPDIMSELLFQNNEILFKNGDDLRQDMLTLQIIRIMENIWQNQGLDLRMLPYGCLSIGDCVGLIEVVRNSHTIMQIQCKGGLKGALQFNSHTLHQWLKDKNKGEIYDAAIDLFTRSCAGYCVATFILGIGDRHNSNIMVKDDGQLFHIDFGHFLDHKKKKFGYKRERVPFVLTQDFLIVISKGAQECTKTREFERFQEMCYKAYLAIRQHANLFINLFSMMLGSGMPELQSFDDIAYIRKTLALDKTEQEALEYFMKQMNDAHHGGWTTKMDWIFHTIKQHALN
Sequence of Activin receptor type-1-like (Homo sapiens) (P37023 whole entry): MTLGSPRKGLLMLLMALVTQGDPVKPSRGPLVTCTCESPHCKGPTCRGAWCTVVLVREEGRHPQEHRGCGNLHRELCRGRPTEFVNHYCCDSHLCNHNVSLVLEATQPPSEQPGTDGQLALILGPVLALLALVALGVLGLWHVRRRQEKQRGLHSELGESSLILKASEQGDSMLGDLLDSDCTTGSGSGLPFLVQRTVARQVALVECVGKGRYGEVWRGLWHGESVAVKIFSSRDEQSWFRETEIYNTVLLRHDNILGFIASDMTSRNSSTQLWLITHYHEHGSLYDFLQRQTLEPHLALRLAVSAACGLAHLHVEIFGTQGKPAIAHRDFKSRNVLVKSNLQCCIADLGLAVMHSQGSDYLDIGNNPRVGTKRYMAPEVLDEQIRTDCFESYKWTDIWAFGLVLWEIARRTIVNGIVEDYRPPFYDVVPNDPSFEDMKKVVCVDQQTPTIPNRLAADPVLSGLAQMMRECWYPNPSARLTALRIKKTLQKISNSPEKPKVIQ
Sequence of cGMP-dependent 3',5'-cyclic phosphodiesterase (Homo sapiens) (O00408 whole entry): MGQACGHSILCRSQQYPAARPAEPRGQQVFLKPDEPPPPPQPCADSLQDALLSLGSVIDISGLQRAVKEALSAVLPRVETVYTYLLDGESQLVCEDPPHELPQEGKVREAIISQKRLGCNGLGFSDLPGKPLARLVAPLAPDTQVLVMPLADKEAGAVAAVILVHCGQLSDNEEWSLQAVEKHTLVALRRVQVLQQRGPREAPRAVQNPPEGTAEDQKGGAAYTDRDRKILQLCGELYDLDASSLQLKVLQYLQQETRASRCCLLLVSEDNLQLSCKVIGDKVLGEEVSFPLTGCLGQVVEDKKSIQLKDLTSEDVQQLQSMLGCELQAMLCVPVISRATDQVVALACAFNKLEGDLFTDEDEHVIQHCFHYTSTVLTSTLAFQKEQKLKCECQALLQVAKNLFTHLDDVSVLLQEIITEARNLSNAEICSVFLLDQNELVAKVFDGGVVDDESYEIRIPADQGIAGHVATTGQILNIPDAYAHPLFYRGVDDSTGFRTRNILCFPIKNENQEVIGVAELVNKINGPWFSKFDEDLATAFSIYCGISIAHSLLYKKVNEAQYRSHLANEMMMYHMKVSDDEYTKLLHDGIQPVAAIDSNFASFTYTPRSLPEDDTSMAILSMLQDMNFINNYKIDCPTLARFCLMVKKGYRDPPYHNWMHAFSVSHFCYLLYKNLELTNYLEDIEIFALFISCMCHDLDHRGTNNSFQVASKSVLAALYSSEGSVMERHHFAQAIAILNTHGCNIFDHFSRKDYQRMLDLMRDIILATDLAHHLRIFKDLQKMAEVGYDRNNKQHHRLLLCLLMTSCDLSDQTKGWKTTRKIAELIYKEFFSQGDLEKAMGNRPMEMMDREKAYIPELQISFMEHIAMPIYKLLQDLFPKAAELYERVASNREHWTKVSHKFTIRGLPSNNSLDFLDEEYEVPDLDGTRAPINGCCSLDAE
Sequence of Serine/threonine-protein kinase 32A (Homo sapiens) (Q8WU08 whole entry): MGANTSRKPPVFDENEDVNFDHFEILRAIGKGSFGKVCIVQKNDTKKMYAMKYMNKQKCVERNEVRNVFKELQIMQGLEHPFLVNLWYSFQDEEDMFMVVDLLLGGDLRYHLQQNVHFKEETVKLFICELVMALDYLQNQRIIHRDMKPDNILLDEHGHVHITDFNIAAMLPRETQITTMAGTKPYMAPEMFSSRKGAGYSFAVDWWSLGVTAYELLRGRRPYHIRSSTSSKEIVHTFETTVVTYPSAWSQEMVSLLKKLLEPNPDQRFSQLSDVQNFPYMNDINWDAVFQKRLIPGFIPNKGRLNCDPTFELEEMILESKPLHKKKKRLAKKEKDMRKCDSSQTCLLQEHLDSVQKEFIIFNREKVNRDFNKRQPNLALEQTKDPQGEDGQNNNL
Sequence of Sodium-dependent dopamine transporter (Homo sapiens) (Q01959 whole entry): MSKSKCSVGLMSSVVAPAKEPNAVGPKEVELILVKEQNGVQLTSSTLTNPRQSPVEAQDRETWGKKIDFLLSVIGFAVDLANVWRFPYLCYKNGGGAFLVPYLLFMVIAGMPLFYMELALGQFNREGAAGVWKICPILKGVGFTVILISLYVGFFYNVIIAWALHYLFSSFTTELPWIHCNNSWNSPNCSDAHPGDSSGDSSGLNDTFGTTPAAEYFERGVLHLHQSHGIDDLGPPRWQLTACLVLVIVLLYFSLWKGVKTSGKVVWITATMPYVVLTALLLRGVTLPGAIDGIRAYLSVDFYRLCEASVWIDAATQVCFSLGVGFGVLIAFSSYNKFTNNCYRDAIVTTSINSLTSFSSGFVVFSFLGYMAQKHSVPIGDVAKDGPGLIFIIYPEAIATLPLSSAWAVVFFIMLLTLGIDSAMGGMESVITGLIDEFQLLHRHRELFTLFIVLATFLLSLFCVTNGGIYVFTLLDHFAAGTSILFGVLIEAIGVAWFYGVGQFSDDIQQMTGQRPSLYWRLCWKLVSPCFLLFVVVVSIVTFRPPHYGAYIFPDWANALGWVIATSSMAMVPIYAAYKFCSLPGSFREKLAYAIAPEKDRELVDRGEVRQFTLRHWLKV
Sequence of Leukotriene B4 receptor 1 (Q15722 whole entry): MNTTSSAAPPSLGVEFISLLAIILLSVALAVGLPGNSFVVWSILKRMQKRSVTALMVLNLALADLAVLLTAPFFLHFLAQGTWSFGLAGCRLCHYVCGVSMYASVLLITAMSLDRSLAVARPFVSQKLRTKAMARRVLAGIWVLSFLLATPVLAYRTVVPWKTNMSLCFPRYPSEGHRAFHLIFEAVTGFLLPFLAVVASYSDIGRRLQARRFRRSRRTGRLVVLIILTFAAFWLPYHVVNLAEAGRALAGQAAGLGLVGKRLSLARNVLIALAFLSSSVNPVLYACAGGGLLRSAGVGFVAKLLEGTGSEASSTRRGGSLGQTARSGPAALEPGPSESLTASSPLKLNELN
Sequence of Beta-2 adrenergic receptor (Homo sapiens) (P07550 whole entry, looked up): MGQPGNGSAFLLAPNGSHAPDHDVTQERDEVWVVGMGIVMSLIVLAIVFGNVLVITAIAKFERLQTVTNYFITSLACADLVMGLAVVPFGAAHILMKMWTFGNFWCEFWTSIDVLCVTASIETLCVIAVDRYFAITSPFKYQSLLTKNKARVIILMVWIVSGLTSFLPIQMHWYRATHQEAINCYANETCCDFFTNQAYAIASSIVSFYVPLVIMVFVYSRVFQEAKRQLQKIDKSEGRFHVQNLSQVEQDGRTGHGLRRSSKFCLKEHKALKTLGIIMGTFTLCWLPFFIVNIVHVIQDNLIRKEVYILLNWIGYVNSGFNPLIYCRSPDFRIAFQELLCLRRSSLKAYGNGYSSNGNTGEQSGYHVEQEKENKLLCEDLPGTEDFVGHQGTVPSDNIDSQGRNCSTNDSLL
Sequence of Melanocyte-stimulating hormone receptor (Homo sapiens) (Q01726 whole entry, looked up): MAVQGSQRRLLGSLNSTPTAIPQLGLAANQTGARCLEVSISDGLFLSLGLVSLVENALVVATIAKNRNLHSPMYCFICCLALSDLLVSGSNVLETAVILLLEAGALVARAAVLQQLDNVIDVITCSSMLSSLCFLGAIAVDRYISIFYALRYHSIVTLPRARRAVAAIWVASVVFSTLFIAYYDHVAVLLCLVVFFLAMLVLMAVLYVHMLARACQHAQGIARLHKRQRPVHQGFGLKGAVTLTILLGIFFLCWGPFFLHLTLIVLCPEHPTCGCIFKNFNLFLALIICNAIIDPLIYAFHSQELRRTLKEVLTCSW

Which inhibition [1] does the source give for COc1ccc2cc(OCC3(C(=O)O)CN(C(=O)c4ccc(F)cc4)C3)ccc2c1 [PF-04418948] here?
The inhibition was -10%.

What about the residual activity [2] of the same molecule?
Its residual activity is 97%.

And the residual activity [3]?
The residual activity was 90%.

What about the residual activity [4] of the same molecule?
The residual activity was 89%.

And the residual activity [5]?
The residual activity was 100%.

And the residual activity [6]?
The residual activity was 82%.

And the residual activity [7]?
The residual activity was 72%.

What about the residual activity [8] of the same molecule?
Its residual activity is 90%.

And the residual activity [9]?
The residual activity was 98%.

And the Ki [10]?
Its Ki is 4.8 µM (not active).

And the residual activity [11]?
The residual activity was 97%.

And the residual activity [12]?
Its residual activity is 75%.

What about the residual activity [13] of the same molecule?
The residual activity was 82%.

And the residual activity [14]?
The residual activity was 35%.

What about the residual activity [15] of the same molecule?
The residual activity was 74%.

What about the residual activity [16] of the same molecule?
The residual activity was 88%.

What about the inhibition [17] of the same molecule?
Its inhibition is 3%.

What about the inhibition [18] of the same molecule?
The inhibition was -2%.

And the residual activity [19]?
Its residual activity is 94%.

And the residual activity [20]?
The residual activity was 76%.

What about the residual activity [21] of the same molecule?
The residual activity was 50%.

What about the residual activity [22] of the same molecule?
The residual activity was 95%.

And the residual activity [23]?
Its residual activity is 97%.

And the residual activity [24]?
The residual activity was 85%.

And the inhibition [25]?
Its inhibition is 6%.

And the residual activity [26]?
The residual activity was 93%.

And the inhibition [27]?
Its inhibition is 14%.

And the residual activity [28]?
Its residual activity is 85%.

What about the residual activity [29] of the same molecule?
Its residual activity is 77%.

What about the residual activity [30] of the same molecule?
Its residual activity is 87%.

And the residual activity [31]?
The residual activity was 93%.

And the residual activity [32]?
The residual activity was 99%.

What about the inhibition [33] of the same molecule?
Its inhibition is 1%.

And the residual activity [34]?
The residual activity was 90%.

And the inhibition [35]?
The inhibition was 5%.

And the residual activity [36]?
The residual activity was 91%.

What about the residual activity [37] of the same molecule?
The residual activity was 28%.

What about the residual activity [38] of the same molecule?
Its residual activity is 89%.

And the residual activity [39]?
Its residual activity is 90%.

And the residual activity [40]?
Its residual activity is 94%.

And the inhibition [41]?
Its inhibition is -4%.

And the residual activity [42]?
The residual activity was 84%.

And the residual activity [43]?
Its residual activity is 96%.

For O=C(c1ccc(F)cc1)N1CC(COc2ccc(Br)cc2)(C(=O)O)C1 [PF-04475866], which inhibition [44] is on record?
The inhibition was -6.66%.

And the inhibition [45]?
The inhibition was 6.07%.

What about the Ki [46] of the same molecule?
Its Ki is 10 µM.
